This note sets out measurements from PubChem BioAssay AID652111 (The Scripps Research Institute Molecular Screening Center, 2013).

This assay has as its target Serine/threonine-protein phosphatase 5 (Homo sapiens) (UniProt P53041). The assay is described as follows: PP5 inhibition of phosphorylase dephosphorylation, late-stage follow-up, selectivity assay for PP1 inhibitor project, biochemical, radiolabel, glycogen phosphorylase substrate, powder samples (AID 652111). As to conditions: recombinant PP5c, 32P/33P phosphorylase dephosphorylation, scintillation.

The term IC50 denotes the concentration that inhibits the measured activity by half.

Active and inactive are the calls of the source.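 Rule for the calls: active = IC50 below 50 µM against PP5; inactive = the rest.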 A value given as a limit tells only on which side of the number the result lay.

Chain of Serine/threonine-protein phosphatase 5 (Homo sapiens) (P53041 whole entry, looked up): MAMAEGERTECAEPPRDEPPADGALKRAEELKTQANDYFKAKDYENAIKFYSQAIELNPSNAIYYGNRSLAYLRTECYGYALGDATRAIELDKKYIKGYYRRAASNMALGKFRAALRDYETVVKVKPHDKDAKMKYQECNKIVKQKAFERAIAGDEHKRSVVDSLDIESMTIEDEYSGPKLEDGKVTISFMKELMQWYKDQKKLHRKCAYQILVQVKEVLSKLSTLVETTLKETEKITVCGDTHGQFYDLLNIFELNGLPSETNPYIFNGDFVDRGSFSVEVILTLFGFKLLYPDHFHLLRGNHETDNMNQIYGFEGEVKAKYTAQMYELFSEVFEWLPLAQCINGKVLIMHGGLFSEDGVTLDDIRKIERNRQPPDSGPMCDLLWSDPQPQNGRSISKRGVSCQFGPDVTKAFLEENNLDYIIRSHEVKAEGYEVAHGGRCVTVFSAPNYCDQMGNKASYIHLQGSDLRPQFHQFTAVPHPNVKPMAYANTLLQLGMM

As to `CCn1c2ccccc2c2cc(NC(=O)COC(=O)c3ccc(NC(=O)CC#N)cc3)ccc21`, the IC50 is > 50 µM (inactive). The value for `CN1CCN(C(c2ccccn2)c2cc(Cl)c3cccnc3c2O)CC1` (stereo not given) was > 50 µM (inactive); that for `COc1ccc(NC(=O)C2C3CCC(O3)C2C(=O)O)c(OC)c1` (stereo not given) was 4.16 µM; that for `N#Cc1c(-c2ccc(Cl)cc2)cc(-c2cccs2)nc1SCC(=O)O` was < 50 µM. For the compound `CCOC(=O)c1sc2nc3c(SCC(=O)O)cc(C(=O)c4cc(F)ccc4O)cn3c(=O)c2c1C`, the IC50 was < 50 µM.
